From PMC7180948, “New Insights into 4-Anilinoquinazolines as Inhibitors of Cardiac Troponin I–Interacting Kinase (TNNi3K)” (Molecules, 2020)

Tests used:
Assay in all cases: biochemical
Set-up in all cases: KINOMEscan competition binding panel (Eurofins DiscoverX), single concentration, percent inhibition
Settings in all cases: read-out: 15 at 1 µM % inhibition
[1] = biological target: CDKL1 (Homo sapiens, UniProt Q00532)
Protocol: (§1) KinomeScan® Assay on 7 and 15 was performed as previously described by EuroFins DiscoverX [24]. GSK114 (7) and 15 were submitted for a KINOMEscan® assay to explore the selectivity profile across >400 human kinases at a compound concentration of 1 µM. […] GSK114 (7) is a narrow-spectrum TNNi3K inhibitor but has some potent off-targets including GAK which has been previously reported for this chemotype. […] If utilized together this set of compounds could be useful to investigate TNNi3K biology.

[2] = biological target: PKN1 (Homo sapiens, UniProt Q16512)
Protocol: as §1

[3] = biological target: ULK2 (Homo sapiens, UniProt Q8IYT8)
Protocol: as §1

[4] = biological target: T1, ABL1(Q252H)-phosphorylated (Homo sapiens, UniProt P00519, Q252H)
T1 construct: phosphorylated
Protocol: as §1

[5] = biological target: PIP5K1A (Homo sapiens, UniProt Q99755)
PIP5K1A, sequence (Q99755 whole entry): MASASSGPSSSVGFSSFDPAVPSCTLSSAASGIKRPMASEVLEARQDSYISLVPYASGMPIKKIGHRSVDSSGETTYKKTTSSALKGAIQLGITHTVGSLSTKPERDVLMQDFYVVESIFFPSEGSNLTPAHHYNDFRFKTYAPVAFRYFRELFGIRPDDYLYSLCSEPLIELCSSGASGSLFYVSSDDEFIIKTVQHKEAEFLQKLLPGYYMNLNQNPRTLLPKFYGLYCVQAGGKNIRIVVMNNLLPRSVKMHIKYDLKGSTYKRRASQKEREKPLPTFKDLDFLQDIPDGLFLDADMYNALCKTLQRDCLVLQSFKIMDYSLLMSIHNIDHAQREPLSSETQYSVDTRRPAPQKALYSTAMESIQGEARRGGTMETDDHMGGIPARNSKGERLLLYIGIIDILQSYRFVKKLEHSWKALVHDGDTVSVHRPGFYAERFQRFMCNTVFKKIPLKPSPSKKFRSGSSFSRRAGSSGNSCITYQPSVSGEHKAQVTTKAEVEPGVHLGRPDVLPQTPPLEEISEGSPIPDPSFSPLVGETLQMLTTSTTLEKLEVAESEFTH
Protocol: as §1

[6] = biological target: CSNK1A1L (Homo sapiens, UniProt Q8N752)
CSNK1A1L, sequence (Q8N752 whole entry): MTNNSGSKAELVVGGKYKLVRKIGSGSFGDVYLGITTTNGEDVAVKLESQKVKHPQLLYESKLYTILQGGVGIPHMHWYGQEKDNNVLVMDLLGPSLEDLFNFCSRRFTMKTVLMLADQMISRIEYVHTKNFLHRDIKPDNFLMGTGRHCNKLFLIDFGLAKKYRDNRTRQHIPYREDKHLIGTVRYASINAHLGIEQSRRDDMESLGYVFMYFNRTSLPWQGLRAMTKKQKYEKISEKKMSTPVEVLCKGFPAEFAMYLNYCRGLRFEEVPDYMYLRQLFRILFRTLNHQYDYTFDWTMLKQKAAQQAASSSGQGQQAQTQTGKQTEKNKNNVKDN
Protocol: as §1

[7] = biological target: EPHA8 (Homo sapiens, UniProt P29322)
EPHA8, sequence (P29322 whole entry): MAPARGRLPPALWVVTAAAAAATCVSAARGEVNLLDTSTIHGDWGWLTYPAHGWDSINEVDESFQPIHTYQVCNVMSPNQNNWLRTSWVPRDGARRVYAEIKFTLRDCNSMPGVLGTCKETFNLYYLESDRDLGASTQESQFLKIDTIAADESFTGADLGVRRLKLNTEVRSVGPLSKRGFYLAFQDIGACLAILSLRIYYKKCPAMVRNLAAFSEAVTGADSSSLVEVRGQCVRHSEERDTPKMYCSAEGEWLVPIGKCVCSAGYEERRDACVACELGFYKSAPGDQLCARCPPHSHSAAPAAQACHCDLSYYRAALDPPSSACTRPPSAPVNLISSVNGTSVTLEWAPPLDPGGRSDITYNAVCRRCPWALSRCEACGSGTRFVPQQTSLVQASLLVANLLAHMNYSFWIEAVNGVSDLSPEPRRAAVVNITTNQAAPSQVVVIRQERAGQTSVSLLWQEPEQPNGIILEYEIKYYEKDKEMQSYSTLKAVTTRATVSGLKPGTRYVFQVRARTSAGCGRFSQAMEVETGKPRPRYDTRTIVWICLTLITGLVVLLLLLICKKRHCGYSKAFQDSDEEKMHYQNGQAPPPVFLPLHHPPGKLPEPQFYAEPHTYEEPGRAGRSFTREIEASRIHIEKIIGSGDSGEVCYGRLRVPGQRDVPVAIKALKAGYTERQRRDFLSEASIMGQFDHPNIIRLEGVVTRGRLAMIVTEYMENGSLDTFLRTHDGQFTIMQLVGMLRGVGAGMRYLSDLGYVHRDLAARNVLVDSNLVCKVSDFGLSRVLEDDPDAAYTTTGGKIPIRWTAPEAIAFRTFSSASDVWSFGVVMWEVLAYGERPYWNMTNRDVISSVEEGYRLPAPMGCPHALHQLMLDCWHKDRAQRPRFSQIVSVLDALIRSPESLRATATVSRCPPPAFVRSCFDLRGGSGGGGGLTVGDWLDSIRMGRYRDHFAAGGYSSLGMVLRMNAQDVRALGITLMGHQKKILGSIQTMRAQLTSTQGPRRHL
Protocol: as §1

[8] = biological target: CSNK1G3 (Homo sapiens, UniProt Q9Y6M4)
CSNK1G3, sequence (Q9Y6M4 whole entry): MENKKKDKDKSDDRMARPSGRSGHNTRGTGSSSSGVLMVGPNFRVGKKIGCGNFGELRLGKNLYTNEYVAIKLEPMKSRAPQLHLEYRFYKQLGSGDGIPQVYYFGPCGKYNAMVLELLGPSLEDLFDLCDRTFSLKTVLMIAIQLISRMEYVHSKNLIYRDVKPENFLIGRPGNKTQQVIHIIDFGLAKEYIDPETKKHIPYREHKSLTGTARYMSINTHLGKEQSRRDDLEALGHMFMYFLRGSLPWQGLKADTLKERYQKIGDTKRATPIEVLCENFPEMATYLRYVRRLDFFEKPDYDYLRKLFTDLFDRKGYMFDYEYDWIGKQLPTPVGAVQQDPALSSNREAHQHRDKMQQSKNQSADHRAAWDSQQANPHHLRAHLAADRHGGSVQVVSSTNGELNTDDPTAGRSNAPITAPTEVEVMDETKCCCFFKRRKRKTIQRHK
Protocol: as §1

[9] = biological target: DYRK2 (Homo sapiens, UniProt Q92630)
Protocol: as §1

[10] = biological target: FLT3(K663Q) (Homo sapiens, UniProt P36888, K663Q)
Protocol: as §1

[11] = biological target: PIK3CA(E545K) (Homo sapiens, UniProt P42336, E545K)
Protocol: as §1

[12] = biological target: PLK2 (Homo sapiens, UniProt Q9NYY3)
Protocol: as §1

[13] = biological target: PIK3CA(Q546K) (Homo sapiens, UniProt P42336, Q546K)
Protocol: as §1

[14] = biological target: STK36 (Homo sapiens, UniProt Q9NRP7)
STK36, sequence (Q9NRP7 whole entry): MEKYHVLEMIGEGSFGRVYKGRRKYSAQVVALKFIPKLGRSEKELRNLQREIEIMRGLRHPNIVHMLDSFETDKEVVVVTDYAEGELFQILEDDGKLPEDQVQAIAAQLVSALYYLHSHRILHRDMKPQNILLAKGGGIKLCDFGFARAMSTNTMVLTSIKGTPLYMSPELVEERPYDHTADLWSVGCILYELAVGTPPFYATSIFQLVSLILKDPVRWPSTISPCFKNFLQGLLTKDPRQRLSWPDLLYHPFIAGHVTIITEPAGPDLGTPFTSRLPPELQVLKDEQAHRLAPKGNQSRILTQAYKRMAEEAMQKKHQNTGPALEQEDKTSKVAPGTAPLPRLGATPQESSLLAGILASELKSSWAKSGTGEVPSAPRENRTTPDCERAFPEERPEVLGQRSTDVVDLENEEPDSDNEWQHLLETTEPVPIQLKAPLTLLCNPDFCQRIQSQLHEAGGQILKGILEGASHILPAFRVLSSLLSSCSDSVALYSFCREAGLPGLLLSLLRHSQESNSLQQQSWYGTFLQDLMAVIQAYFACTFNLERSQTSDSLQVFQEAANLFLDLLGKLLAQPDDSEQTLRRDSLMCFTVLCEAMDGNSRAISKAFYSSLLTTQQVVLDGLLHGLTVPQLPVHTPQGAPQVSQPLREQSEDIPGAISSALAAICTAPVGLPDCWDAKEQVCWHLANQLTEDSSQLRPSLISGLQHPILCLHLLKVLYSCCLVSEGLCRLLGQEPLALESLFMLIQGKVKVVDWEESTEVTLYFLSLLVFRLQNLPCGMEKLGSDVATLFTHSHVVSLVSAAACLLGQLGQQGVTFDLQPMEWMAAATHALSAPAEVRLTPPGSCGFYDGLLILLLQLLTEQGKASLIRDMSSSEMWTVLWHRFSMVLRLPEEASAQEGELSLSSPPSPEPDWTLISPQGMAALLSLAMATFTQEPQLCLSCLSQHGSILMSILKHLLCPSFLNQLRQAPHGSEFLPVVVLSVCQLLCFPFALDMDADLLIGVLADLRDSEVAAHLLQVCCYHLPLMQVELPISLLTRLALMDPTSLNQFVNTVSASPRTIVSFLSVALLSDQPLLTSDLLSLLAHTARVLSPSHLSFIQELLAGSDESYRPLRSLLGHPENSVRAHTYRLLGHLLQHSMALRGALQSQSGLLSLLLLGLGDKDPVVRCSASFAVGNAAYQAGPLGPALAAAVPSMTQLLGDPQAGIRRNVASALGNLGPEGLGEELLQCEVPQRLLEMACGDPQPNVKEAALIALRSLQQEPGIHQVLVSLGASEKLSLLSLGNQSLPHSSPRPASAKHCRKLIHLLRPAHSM
Protocol: as §1

[15] = biological target: AURKA (Homo sapiens, UniProt O14965)
AURKA, sequence (O14965 whole entry): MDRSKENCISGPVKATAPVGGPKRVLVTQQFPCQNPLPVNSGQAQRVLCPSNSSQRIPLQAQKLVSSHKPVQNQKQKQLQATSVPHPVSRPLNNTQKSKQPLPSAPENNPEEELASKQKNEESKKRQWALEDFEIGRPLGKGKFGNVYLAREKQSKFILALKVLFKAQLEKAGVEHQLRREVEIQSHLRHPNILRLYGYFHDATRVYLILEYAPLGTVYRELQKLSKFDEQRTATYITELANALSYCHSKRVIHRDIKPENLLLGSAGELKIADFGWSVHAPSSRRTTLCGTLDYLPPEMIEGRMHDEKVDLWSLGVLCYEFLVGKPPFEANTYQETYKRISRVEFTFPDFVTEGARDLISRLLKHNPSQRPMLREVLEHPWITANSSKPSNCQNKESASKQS
Protocol: as §1

[16] = biological target: MAPKAPK2 (Homo sapiens, UniProt P49137)
MAPKAPK2, sequence (P49137 whole entry): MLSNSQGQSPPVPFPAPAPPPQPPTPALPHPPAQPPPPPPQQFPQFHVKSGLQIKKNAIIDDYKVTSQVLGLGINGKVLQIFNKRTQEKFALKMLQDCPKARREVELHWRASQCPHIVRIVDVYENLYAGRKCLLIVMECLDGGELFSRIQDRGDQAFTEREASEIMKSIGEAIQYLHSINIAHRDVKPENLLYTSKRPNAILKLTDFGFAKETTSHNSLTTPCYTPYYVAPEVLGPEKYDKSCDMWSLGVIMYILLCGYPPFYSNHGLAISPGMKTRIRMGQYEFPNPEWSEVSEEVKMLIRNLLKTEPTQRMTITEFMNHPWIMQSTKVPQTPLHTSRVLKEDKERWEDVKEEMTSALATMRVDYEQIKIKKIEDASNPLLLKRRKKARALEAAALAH
Protocol: as §1

[17] = biological target: CSNK2A1 (Homo sapiens, UniProt P68400)
CSNK2A1, sequence (P68400 whole entry): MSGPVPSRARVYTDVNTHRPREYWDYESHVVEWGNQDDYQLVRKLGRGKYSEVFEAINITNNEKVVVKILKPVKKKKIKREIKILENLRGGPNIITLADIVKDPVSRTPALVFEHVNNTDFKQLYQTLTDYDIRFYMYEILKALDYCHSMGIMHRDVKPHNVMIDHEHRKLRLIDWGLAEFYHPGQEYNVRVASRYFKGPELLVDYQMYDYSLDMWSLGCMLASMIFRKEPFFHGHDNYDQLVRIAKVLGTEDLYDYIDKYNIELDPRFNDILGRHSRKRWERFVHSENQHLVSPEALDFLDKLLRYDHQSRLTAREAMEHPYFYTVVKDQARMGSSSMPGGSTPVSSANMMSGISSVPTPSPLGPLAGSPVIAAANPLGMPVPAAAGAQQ
Protocol: as §1

[18] = biological target: T2, ABL1(T315I)-phosphorylated (Homo sapiens, UniProt P00519, T315I)
T2 construct: phosphorylated
Protocol: as §1

[19] = biological target: T3, YSK4 (Homo sapiens, UniProt Q56UN5)
T3 construct: gene MAP3K19
Protocol: as §1

[20] = biological target: BUB1 (Homo sapiens, UniProt O43683)
Protocol: as §1

[21] = biological target: T4, ASK2 (Homo sapiens, UniProt O95382)
T4 construct: gene MAP3K6
Protocol: as §1

[22] = biological target: PLK4 (Homo sapiens, UniProt O00444)
Protocol: as §1

[23] = biological target: EGFR (Homo sapiens, UniProt P00533)
Protocol: as §1

[24] = biological target: T5, RPS6KA5(Kin.Dom.2-C-terminal) (Homo sapiens, UniProt O75582)
T5 construct: Kin.Dom.2-C-terminal
Protocol: as §1

inhibition at 1 µM [1]: 2%
inhibition at 1 µM [2]: 5%
inhibition at 1 µM [3]: 9%
inhibition at 1 µM [4]: 34%
inhibition at 1 µM [5]: 22%
inhibition at 1 µM [6]: 0%
inhibition at 1 µM [7]: 3%
inhibition at 1 µM [8]: 0%
inhibition at 1 µM [9]: 0%
inhibition at 1 µM [10]: 10%
inhibition at 1 µM [11]: 21%
inhibition at 1 µM [12]: 23%
inhibition at 1 µM [13]: 37%
inhibition at 1 µM [14]: 0%
inhibition at 1 µM [15]: 14%
inhibition at 1 µM [16]: 0%
inhibition at 1 µM [17]: 18%
inhibition at 1 µM [18]: 0%
inhibition at 1 µM [19]: 0%
inhibition at 1 µM [20]: 7%
inhibition at 1 µM [21]: 0%
inhibition at 1 µM [22]: 23%
inhibition at 1 µM [23]: 0%
inhibition at 1 µM [24]: 8%
Structure (SMILES): CNS(=O)(=O)c1ccc(N(C)C)c(Nc2nc(C)nc3cc(OC)c(OC)cc23)c1 [compound 15, 3-((6,7-dimethoxy-2-methylquinazolin-4-yl)amino)-4-(dimethylamino)-N-methylbenzenesulfonamide]
